Source: the supplement of paper PMC8612539
Converted amounts (≈) assume the structure as drawn.

Test system: Mannheimia haemolytica
Experiment: minimum inhibitory concentration (MIC)
Method: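 Broth microdilution MIC (Sensititre BOPO7F bovine plate, CLSI methods) of 19 antimicrobials against field isolates of P. multocida, M. haemolytica, H. somni (deep nasopharyngeal swabs) and E. coli, Enterococcus spp. (rectal swabs) from weaned dairy heifers. Incubation 16-24 h at 35 C. MIC is the lowest concentration preventing visible growth. Values with <= or > lie at the tested range limits. Trimethoprim-sulfamethoxazole is given as the trimethoprim component of a 1:19 mixture.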

CCN1CCN(c2cc3c(cc2F)c(=O)c(C(=O)O)cn3C2CC2)CC1 [Enrofloxacin]
Conditions | minimum inhibitory concentration [µg/mL]
isolate (source animal id): 8 | 0.5 (≈ 1.39 µM)
isolate (source animal id): 13 | 0.5 (≈ 1.39 µM)
isolate (source animal id): 18 | 0.5 (≈ 1.39 µM)
isolate (source animal id): 21 | 0.5 (≈ 1.39 µM)
isolate (source animal id): 25 | 0.5 (≈ 1.39 µM)
isolate (source animal id): 27 | 0.5 (≈ 1.39 µM)
isolate (source animal id): 28 | 1 (≈ 2.78 µM)
isolate (source animal id): 30 | 0.5 (≈ 1.39 µM)
isolate (source animal id): 31 | 1 (≈ 2.78 µM)
isolate (source animal id): 32 | 0.25 (≈ 0.696 µM)
isolate (source animal id): 34 | 0.5 (≈ 1.39 µM)
isolate (source animal id): 36 | 0.5 (≈ 1.39 µM)
isolate (source animal id): 37 | 1 (≈ 2.78 µM)
isolate (source animal id): 40 | 0.5 (≈ 1.39 µM)
isolate (source animal id): 41 | 0.5 (≈ 1.39 µM)
isolate (source animal id): 43 | 0.5 (≈ 1.39 µM)
isolate (source animal id): 46 | 0.5 (≈ 1.39 µM)
isolate (source animal id): 49 | 0.5 (≈ 1.39 µM)
isolate (source animal id): 50 | 0.5 (≈ 1.39 µM)
isolate (source animal id): 51 | 0.5 (≈ 1.39 µM)
isolate (source animal id): 52 | 0.5 (≈ 1.39 µM)
isolate (source animal id): 53 | 0.5 (≈ 1.39 µM)
isolate (source animal id): 55 | 0.5 (≈ 1.39 µM)
isolate (source animal id): 56 | 0.5 (≈ 1.39 µM)
isolate (source animal id): 57 | > 2
isolate (source animal id): 100 | 2 (≈ 5.56 µM)
isolate (source animal id): 103 | 0.5 (≈ 1.39 µM)
isolate (source animal id): 107 | 0.5 (≈ 1.39 µM)
isolate (source animal id): 108 | 0.5 (≈ 1.39 µM)
isolate (source animal id): 112 | 0.5 (≈ 1.39 µM)
isolate (source animal id): 113 | > 2
isolate (source animal id): 121 | 0.5 (≈ 1.39 µM)
isolate (source animal id): 122 | 0.5 (≈ 1.39 µM)
isolate (source animal id): 123 | > 2
isolate (source animal id): 126 | 2 (≈ 5.56 µM)
isolate (source animal id): 133 | > 2
isolate (source animal id): 135 | > 2
isolate (source animal id): 138 | 2 (≈ 5.56 µM)
isolate (source animal id): 141 | > 2
isolate (source animal id): 142 | 1 (≈ 2.78 µM)
isolate (source animal id): 145 | 1 (≈ 2.78 µM)
isolate (source animal id): 149 | ≤ 0.12
isolate (source animal id): 151 | ≤ 0.12
isolate (source animal id): 152 | 1 (≈ 2.78 µM)
isolate (source animal id): 154 | ≤ 0.12
isolate (source animal id): 159 | 1 (≈ 2.78 µM)
isolate (source animal id): 162 | 1 (≈ 2.78 µM)
isolate (source animal id): 170 | ≤ 0.12
isolate (source animal id): 171 | ≤ 0.12
isolate (source animal id): 172 | ≤ 0.12
isolate (source animal id): 173 | ≤ 0.12
isolate (source animal id): 179 | ≤ 0.12
isolate (source animal id): 180 | ≤ 0.12
isolate (source animal id): 183 | ≤ 0.12
isolate (source animal id): 186 | ≤ 0.12
isolate (source animal id): 187 | ≤ 0.12
isolate (source animal id): 188 | ≤ 0.12
isolate (source animal id): 190 | ≤ 0.12
isolate (source animal id): 191 | ≤ 0.12
isolate (source animal id): 192 | ≤ 0.12
isolate (source animal id): 201 | ≤ 0.12
isolate (source animal id): 202 | ≤ 0.12
isolate (source animal id): 209 | ≤ 0.12
isolate (source animal id): 211 | ≤ 0.12
isolate (source animal id): 220 | ≤ 0.12
isolate (source animal id): 221 | ≤ 0.12
isolate (source animal id): 223 | ≤ 0.12
isolate (source animal id): 233 | 1 (≈ 2.78 µM)
isolate (source animal id): 237 | 1 (≈ 2.78 µM)
isolate (source animal id): 241 | 1 (≈ 2.78 µM)
isolate (source animal id): 252 | 0.5 (≈ 1.39 µM)
isolate (source animal id): 253 | 0.5 (≈ 1.39 µM)
isolate (source animal id): 259 | > 2
isolate (source animal id): 260 | 0.5 (≈ 1.39 µM)
isolate (source animal id): 262 | 1 (≈ 2.78 µM)
isolate (source animal id): 282 | > 2
isolate (source animal id): 287 | 0.5 (≈ 1.39 µM)
isolate (source animal id): 288 | ≤ 0.12
isolate (source animal id): 291 | ≤ 0.12
isolate (source animal id): 293 | 0.5 (≈ 1.39 µM)
isolate (source animal id): 298 | 0.5 (≈ 1.39 µM)
isolate (source animal id): 299 | 0.5 (≈ 1.39 µM)
isolate (source animal id): 300 | ≤ 0.12
isolate (source animal id): 302 | 0.5 (≈ 1.39 µM)
isolate (source animal id): 304 | 0.5 (≈ 1.39 µM)
isolate (source animal id): 306 | ≤ 0.12
isolate (source animal id): 308 | ≤ 0.12
isolate (source animal id): 309 | ≤ 0.12
isolate (source animal id): 313 | 0.5 (≈ 1.39 µM)
isolate (source animal id): 318 | 0.25 (≈ 0.696 µM)
isolate (source animal id): 320 | ≤ 0.12
isolate (source animal id): 321 | 0.5 (≈ 1.39 µM)
isolate (source animal id): 323 | 0.5 (≈ 1.39 µM)
isolate (source animal id): 324 | 0.5 (≈ 1.39 µM)
isolate (source animal id): 326 | 0.5 (≈ 1.39 µM)
isolate (source animal id): 328 | 0.5 (≈ 1.39 µM)
isolate (source animal id): 329 | 0.5 (≈ 1.39 µM)
isolate (source animal id): 333 | 0.5 (≈ 1.39 µM)
isolate (source animal id): 335 | 0.5 (≈ 1.39 µM)
isolate (source animal id): 338 | 0.5 (≈ 1.39 µM)

CCCN1C[C@H](C)[C@@H](O)[C@](C)(O)[C@@H](CC)OC(=O)[C@H](C)[C@@H](O[C@H]2C[C@@](C)(OC)[C@@H](O)[C@H](C)O2)[C@H](C)[C@@H](O[C@@H]2O[C@H](C)C[C@H](N(C)C)[C@H]2O)[C@](C)(O)C[C@H]1C [Gamithromycin]
Conditions | minimum inhibitory concentration [µg/mL]
isolate (source animal id): 8 | ≤ 1
isolate (source animal id): 13 | ≤ 1
isolate (source animal id): 18 | ≤ 1
isolate (source animal id): 21 | ≤ 1
isolate (source animal id): 25 | 4 (≈ 5.15 µM)
isolate (source animal id): 27 | 4 (≈ 5.15 µM)
isolate (source animal id): 28 | 2 (≈ 2.57 µM)
isolate (source animal id): 30 | ≤ 1
isolate (source animal id): 31 | 2 (≈ 2.57 µM)
isolate (source animal id): 32 | ≤ 1
isolate (source animal id): 34 | ≤ 1
isolate (source animal id): 36 | 4 (≈ 5.15 µM)
isolate (source animal id): 37 | 4 (≈ 5.15 µM)
isolate (source animal id): 40 | ≤ 1
isolate (source animal id): 41 | ≤ 1
isolate (source animal id): 43 | ≤ 1
isolate (source animal id): 46 | 4 (≈ 5.15 µM)
isolate (source animal id): 49 | 2 (≈ 2.57 µM)
isolate (source animal id): 50 | 4 (≈ 5.15 µM)
isolate (source animal id): 51 | ≤ 1
isolate (source animal id): 52 | ≤ 1
isolate (source animal id): 53 | ≤ 1
isolate (source animal id): 55 | ≤ 1
isolate (source animal id): 56 | ≤ 1
isolate (source animal id): 57 | > 8
isolate (source animal id): 100 | 2 (≈ 2.57 µM)
isolate (source animal id): 103 | 4 (≈ 5.15 µM)
isolate (source animal id): 107 | 2 (≈ 2.57 µM)
isolate (source animal id): 108 | 2 (≈ 2.57 µM)
isolate (source animal id): 112 | > 8
isolate (source animal id): 113 | > 8
isolate (source animal id): 121 | 4 (≈ 5.15 µM)
isolate (source animal id): 122 | 8 (≈ 10.3 µM)
isolate (source animal id): 123 | > 8
isolate (source animal id): 126 | > 8
isolate (source animal id): 133 | > 8
isolate (source animal id): 135 | > 8
isolate (source animal id): 138 | > 8
isolate (source animal id): 141 | > 8
isolate (source animal id): 142 | > 8
isolate (source animal id): 145 | 2 (≈ 2.57 µM)
isolate (source animal id): 149 | 2 (≈ 2.57 µM)
isolate (source animal id): 151 | 2 (≈ 2.57 µM)
isolate (source animal id): 152 | 4 (≈ 5.15 µM)
isolate (source animal id): 154 | ≤ 1
isolate (source animal id): 159 | > 8
isolate (source animal id): 162 | > 8
isolate (source animal id): 170 | 2 (≈ 2.57 µM)
isolate (source animal id): 171 | ≤ 1
isolate (source animal id): 172 | 2 (≈ 2.57 µM)
isolate (source animal id): 173 | 2 (≈ 2.57 µM)
isolate (source animal id): 179 | ≤ 1
isolate (source animal id): 180 | ≤ 1
isolate (source animal id): 183 | ≤ 1
isolate (source animal id): 186 | ≤ 1
isolate (source animal id): 187 | 2 (≈ 2.57 µM)
isolate (source animal id): 188 | ≤ 1
isolate (source animal id): 190 | ≤ 1
isolate (source animal id): 191 | 2 (≈ 2.57 µM)
isolate (source animal id): 192 | ≤ 1
isolate (source animal id): 201 | 2 (≈ 2.57 µM)
isolate (source animal id): 202 | 2 (≈ 2.57 µM)
isolate (source animal id): 209 | 2 (≈ 2.57 µM)
isolate (source animal id): 211 | 2 (≈ 2.57 µM)
isolate (source animal id): 220 | 2 (≈ 2.57 µM)
isolate (source animal id): 221 | ≤ 1
isolate (source animal id): 223 | 2 (≈ 2.57 µM)
isolate (source animal id): 233 | 2 (≈ 2.57 µM)
isolate (source animal id): 237 | 4 (≈ 5.15 µM)
isolate (source animal id): 241 | 4 (≈ 5.15 µM)
isolate (source animal id): 252 | 8 (≈ 10.3 µM)
isolate (source animal id): 253 | 8 (≈ 10.3 µM)
isolate (source animal id): 259 | > 8
isolate (source animal id): 260 | 8 (≈ 10.3 µM)
isolate (source animal id): 262 | 4 (≈ 5.15 µM)
isolate (source animal id): 282 | > 8
isolate (source animal id): 287 | 8 (≈ 10.3 µM)
isolate (source animal id): 288 | ≤ 1
isolate (source animal id): 291 | ≤ 1
isolate (source animal id): 293 | 8 (≈ 10.3 µM)
isolate (source animal id): 298 | > 8
isolate (source animal id): 299 | > 8
isolate (source animal id): 300 | ≤ 1
isolate (source animal id): 302 | > 8
isolate (source animal id): 304 | > 8
isolate (source animal id): 306 | ≤ 1
isolate (source animal id): 308 | ≤ 1
isolate (source animal id): 309 | ≤ 1
isolate (source animal id): 313 | > 8
isolate (source animal id): 318 | 8 (≈ 10.3 µM)
isolate (source animal id): 320 | ≤ 1
isolate (source animal id): 321 | > 8
isolate (source animal id): 323 | > 8
isolate (source animal id): 324 | 8 (≈ 10.3 µM)
isolate (source animal id): 326 | > 8
isolate (source animal id): 328 | > 8
isolate (source animal id): 329 | > 8
isolate (source animal id): 333 | > 8
isolate (source animal id): 335 | 8 (≈ 10.3 µM)
isolate (source animal id): 338 | 8 (≈ 10.3 µM)
